Several values for one entry are separate records, joined by “and”; a condition that tells them apart may be missing. Equal values may be shown once. Toxic doses and inconclusive results are not listed. Rule as the data show it: active = T/C of 150% or more; inactive = T/C below 125%.
Tested on: L1210 leukemia ip in BDF1 mice, survival T/C
Experiment: NCI In Vivo Anticancer Drug Screen. Data for tumor model L1210 Leukemia (intraperitoneal) in B6D2F1 (BDF1) mice
Details: endpoint: mean survival time, higher = longer survival
Summary of the method: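 Transplanted-tumor mice were given test agent; controls received vehicle only. Survival readings from the two groups were divided (treated over control).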

[1] = dose: 100.0 mg/kg/injection, schedule: Q01DX001 (ip), vehicle: saline
[2] = dose: 200.0 mg/kg/injection, schedule: Q01DX001 (ip), vehicle: saline
[3] = dose: 400.0 mg/kg/injection, schedule: Q01DX001 (ip), vehicle: saline
[4] = dose: 100.0 mg/kg/injection, schedule: Q01DX009 (ip), vehicle: saline with Tween-80
[5] = dose: 200.0 mg/kg/injection, schedule: Q01DX009 (ip), vehicle: saline with Tween-80
[6] = dose: 400.0 mg/kg/injection, schedule: Q01DX009 (ip), vehicle: saline with Tween-80
[7] = dose: 50.0 mg/kg/injection, schedule: Q01DX009 (ip), vehicle: saline
[8] = dose: 100.0 mg/kg/injection, schedule: Q01DX009 (ip), vehicle: saline
[9] = dose: 100.0 mg/kg/injection, schedule: Q04DX003 (ip), vehicle: saline
[10] = dose: 200.0 mg/kg/injection, schedule: Q04DX003 (ip), vehicle: saline
[11] = dose: 100.0 mg/kg/injection, schedule: Q01DX009 (ip), vehicle: Klucel (hydroxypropylcellulose) (HPC)

Measured: T/C

Nc1cc2c(cc1N)-c1ccccc1/C2=N\O
inactive: dose: 75.0 mg/kg/injection, schedule: Q01DX001 (ip), vehicle: carboxymethylcellulose (CMC) 102 % of control | dose: 150.0 mg/kg/injection, schedule: Q01DX001 (ip), vehicle: carboxymethylcellulose (CMC) 91 % of control

Cn1cnc2c(C#N)c(C#N)nn2c1=O
inactive: dose: 50.0 mg/kg/injection, schedule: Q01DX001 (ip), vehicle: carboxymethylcellulose (CMC) 93 % of control | dose: 100.0 mg/kg/injection, schedule: Q01DX001 (ip), vehicle: carboxymethylcellulose (CMC) 90 % of control | dose: 200.0 mg/kg/injection, schedule: Q01DX001 (ip), vehicle: carboxymethylcellulose (CMC) 93 % of control

COc1ccc(C(=O)NC2C(OC(C)=O)OC(COC(C)=O)C(OC(C)=O)C2OC(C)=O)cc1 (stereo unspecified)
inactive: [1] 98 % of control and 101 % of control | [2] 96 % of control and 106 % of control | [3] 90 % of control and 89 % of control

O=Cc1[nH]c(=S)[nH]c(=O)c1Cc1ccc(Br)cc1
inactive: dose: 100.0 mg/kg/injection, schedule: Q01DX001 (ip), vehicle: saline with Tween-80 106 % of control | [4] 94 % of control | dose: 200.0 mg/kg/injection, schedule: Q01DX001 (ip), vehicle: saline with Tween-80 98 % of control | [5] 91 % of control | dose: 400.0 mg/kg/injection, schedule: Q01DX001 (ip), vehicle: saline with Tween-80 98 % of control | [6] 98 % of control

CCOCCc1ccncc1
inactive: [7] 101 % of control | [8] 94 % of control | dose: 200.0 mg/kg/injection, schedule: Q01DX009 (ip), vehicle: saline 90 % of control

Nc1ccccc1SC1CC(=O)N(c2ccc(Cl)cc2)C1=O (stereo unspecified)
inactive: [4] 91 % of control | dose: 100.0 mg/kg/injection, schedule: Q04DX003 (ip), vehicle: saline with Tween-80 89 % of control | [5] 88 % of control | dose: 200.0 mg/kg/injection, schedule: Q04DX003 (ip), vehicle: saline with Tween-80 101 % of control | [6] 98 % of control | dose: 400.0 mg/kg/injection, schedule: Q04DX003 (ip), vehicle: saline with Tween-80 97 % of control

O=S(=O)(Cc1ccccc1)C(Cl)c1ccccc1 (stereo unspecified)
inactive: [1] 115 % of control | [2] 101 % of control | [3] 89 % of control

CCC(Br)C(=O)O (stereo unspecified)
inactive: [7] 96 % of control and 97 % of control | dose: 50.0 mg/kg/injection, schedule: Q04DX003 (ip), vehicle: saline 95 % of control | [1] 92 % of control | [8] 89 % of control and 91 % of control | dose: 100.0 mg/kg/injection, schedule: Q04DX002 (ip), vehicle: saline 101 % of control | [9] 100 % of control | [2] 96 % of control | dose: 200.0 mg/kg/injection, schedule: Q04DX002 (ip), vehicle: saline 105 % of control | [10] 90 % of control

O=c1c(Br)c(Cl)nc2ccccn12
inactive: [1] 95 % of control | [2] 96 % of control | [3] 93 % of control

CC(C)C(O)c1c[nH]c(=O)[nH]c1=O (stereo unspecified)
inactive: [11] 91 % of control | dose: 200.0 mg/kg/injection, schedule: Q01DX009 (ip), vehicle: Klucel (hydroxypropylcellulose) (HPC) 105 % of control | dose: 400.0 mg/kg/injection, schedule: Q01DX009 (ip), vehicle: Klucel (hydroxypropylcellulose) (HPC) 96 % of control

O=S(=O)(Cc1ccccc1)C(I)c1ccccc1 (stereo unspecified)
inactive: dose: 100.0 mg/kg/injection, schedule: Q04DX002 (ip), vehicle: Klucel (hydroxypropylcellulose) (HPC) 108 % of control | dose: 200.0 mg/kg/injection, schedule: Q04DX002 (ip), vehicle: Klucel (hydroxypropylcellulose) (HPC) 122 % of control | dose: 400.0 mg/kg/injection, schedule: Q04DX002 (ip), vehicle: Klucel (hydroxypropylcellulose) (HPC) 105 % of control

c1cnon1
inactive: [1] 102 % of control | [2] 102 % of control | [3] 95 % of control

O=NN(CCCCl)C(=O)NC1CCCCC1
inactive: dose: 12.5 mg/kg/injection, schedule: Q01DX001 (ip), vehicle: saline 103 % of control | dose: 25.0 mg/kg/injection, schedule: Q01DX001 (ip), vehicle: saline 108 % of control | dose: 50.0 mg/kg/injection, schedule: Q01DX001 (ip), vehicle: saline 103 % of control | [1] 103 % of control | [2] 102 % of control | dose: 300.0 mg/kg/injection, schedule: Q01DX001 (ip), vehicle: saline 106 % of control | [3] 110 % of control | dose: 500.0 mg/kg/injection, schedule: Q01DX001 (ip), vehicle: saline 100 % of control | dose: 600.0 mg/kg/injection, schedule: Q01DX001 (ip), vehicle: saline 106 % of control | dose: 800.0 mg/kg/injection, schedule: Q01DX001 (ip), vehicle: saline 112 % of control | dose: 1000.0 mg/kg/injection, schedule: Q01DX001 (ip), vehicle: saline 103 % of control

COC1c2c(nc3ccccc3c2C#N)-c2ccccc2C1(C)C (stereo unspecified)
inactive: dose: 100.0 mg/kg/injection, schedule: Q04DX003 (ip), vehicle: Klucel (hydroxypropylcellulose) (HPC) 106 % of control | dose: 200.0 mg/kg/injection, schedule: Q04DX003 (ip), vehicle: Klucel (hydroxypropylcellulose) (HPC) 95 % of control | dose: 400.0 mg/kg/injection, schedule: Q04DX003 (ip), vehicle: Klucel (hydroxypropylcellulose) (HPC) 104 % of control

N#CCC(=O)NCc1cnccn1
inactive: dose: 50.0 mg/kg/injection, schedule: Q01DX005 (ip), vehicle: saline 110 % of control | dose: 100.0 mg/kg/injection, schedule: Q01DX005 (ip), vehicle: saline 104 % of control | [9] 103 % of control | dose: 200.0 mg/kg/injection, schedule: Q01DX005 (ip), vehicle: saline 105 % of control | [10] 103 % of control | dose: 400.0 mg/kg/injection, schedule: Q01DX005 (ip), vehicle: saline 105 % of control | dose: 400.0 mg/kg/injection, schedule: Q04DX003 (ip), vehicle: saline 101 % of control

CCOC(=O)C(=O)CC1CCCCC1
inactive: dose: 50.0 mg/kg/injection, schedule: Q01DX009 (ip), vehicle: saline with Tween-80 92 % of control | [4] 100 % of control | [5] 100 % of control

COc1ccc(N=NN(C)C(=O)c2ccccc2)cc1
inactive: dose: 50.0 mg/kg/injection, schedule: Q01DX009 (ip), vehicle: Klucel (hydroxypropylcellulose) (HPC) 108 % of control | dose: 75.0 mg/kg/injection, schedule: Q01DX001 (ip), vehicle: Klucel (hydroxypropylcellulose) (HPC) 112 % of control | [11] 120 % of control | dose: 150.0 mg/kg/injection, schedule: Q01DX001 (ip), vehicle: Klucel (hydroxypropylcellulose) (HPC) 111 % of control | dose: 300.0 mg/kg/injection, schedule: Q01DX001 (ip), vehicle: Klucel (hydroxypropylcellulose) (HPC) 107 % of control

Source: PubChem BioAssay AID248 (DTP/NCI, 2004)
